System: adult fleas (C. felis)
Test: In vitro membrane feeding exposure to assess flea reproduction
Parameters: species or system Ctenocephalides felis
Protocol: A membrane feeding method [Wade S E, Georgi J R. Survival and reproduction of artificially fed cat fleas, Ctenocephalides felis Bouché (Siphonaptera: Pulicidae). J Med Entomol 1988, 25: 186-190.] was modified to assess the impact of fluralaner exposure on flea reproduction. Defibrinated sheep blood was prepared in a series of dilutions with fluralaner to obtain concentrations between 50.0 and 0.09 ng/mL. These test solutions were prepared twice and each preparation was tested in duplicate resulting in a total of 4 replicates per concentration, along with a fluralaner negative solvent control (a solvent concentration equivalent to that of the highest concentrated fluralaner test solution) and an untreated control.
Unfed adult fleas (C. felis; 20 males and 20 females) were placed into a plastic unit that was then closed with a gauze lid. A grid inside the plastic unit divided the unit into 2 chambers, an upper chamber for flea feeding and a lower chamber for egg collection. Test or control blood preparations (2 ml) were placed in an artificial membrane closed glass tube that was then placed on the plastic unit as the food source. Feeding units were incubated (38° C. and 60% RH) for 10 days. Test and negative control blood preparations were freshly prepared and exchanged (on days 1, 3, 5, and 8) to permit continuous flea feeding. Fleas were transferred into fresh plastic units on Days 5 and 8 to facilitate egg collection. Collected eggs were mixed with flea nourishment medium and incubated (28° C. and 80% RH) in darkness for 22 (±3) days to enable flea development. Parameters recorded were flea survival, oviposition control, egg hatchability, pupa control, flea-emergence control and reproduction inhibition.

[1] = eggs of parent fleas fed 0.09 ng/mL in blood, exposure day 9
[2] = eggs of parent fleas fed 0.09 ng/mL in blood, exposure day 10
[3] = eggs of parent fleas fed 0.19 ng/mL in blood, exposure day 3
[4] = eggs of parent fleas fed 0.19 ng/mL in blood, exposure day 4
[5] = eggs of parent fleas fed 0.19 ng/mL in blood, exposure day 5
[6] = eggs of parent fleas fed 0.19 ng/mL in blood, exposure day 8
[7] = eggs of parent fleas fed 0.19 ng/mL in blood, exposure day 9
[8] = eggs of parent fleas fed 0.19 ng/mL in blood, exposure day 10
[9] = eggs of parent fleas fed 0.39 ng/mL in blood, exposure day 3
[10] = eggs of parent fleas fed 0.39 ng/mL in blood, exposure day 4
[11] = eggs of parent fleas fed 0.39 ng/mL in blood, exposure day 5
[12] = eggs of parent fleas fed 0.39 ng/mL in blood, exposure day 8
[13] = eggs of parent fleas fed 0.39 ng/mL in blood, exposure day 9
[14] = eggs of parent fleas fed 0.39 ng/mL in blood, exposure day 10
[15] = eggs of parent fleas fed 0.78 ng/mL in blood, exposure day 3
[16] = eggs of parent fleas fed 0.78 ng/mL in blood, exposure day 4
[17] = eggs of parent fleas fed 0.78 ng/mL in blood, exposure day 5
[18] = eggs of parent fleas fed 0.78 ng/mL in blood, exposure day 8
[19] = eggs of parent fleas fed 0.78 ng/mL in blood, exposure day 9
[20] = eggs of parent fleas fed 0.78 ng/mL in blood, exposure day 10
[21] = eggs of parent fleas fed 1.56 ng/mL in blood, exposure day 3
[22] = eggs of parent fleas fed 1.56 ng/mL in blood, exposure day 4
[23] = eggs of parent fleas fed 1.56 ng/mL in blood, exposure day 5
[24] = eggs of parent fleas fed 1.56 ng/mL in blood, exposure day 8
[25] = eggs of parent fleas fed 1.56 ng/mL in blood, exposure day 9
[26] = eggs of parent fleas fed 1.56 ng/mL in blood, exposure day 10
[27] = eggs of parent fleas fed 3.13 ng/mL in blood, exposure day 3
[28] = eggs of parent fleas fed 3.13 ng/mL in blood, exposure day 4
[29] = eggs of parent fleas fed 3.13 ng/mL in blood, exposure day 5
[30] = eggs of parent fleas fed 3.13 ng/mL in blood, exposure day 8
[31] = eggs of parent fleas fed 3.13 ng/mL in blood, exposure day 9
[32] = eggs of parent fleas fed 3.13 ng/mL in blood, exposure day 10

With Cc1cc(C2=NOC(c3cc(Cl)cc(Cl)c3)(C(F)(F)F)C2)ccc1C(=O)NCC(=O)NCC(F)(F)F (centres unmarked) [fluralaner, 4-[5-(3,5-Dichlorophenyl)-5-trifluoromethyl-4,5-dihydroisoxazol-3-yl]-2-methyl-N-[(2,2,2-trifluoro-ethylcarbamoyl)-methyl]-benzamide] the “Pupal Development Control” value (eggs of parent fleas fed 0.09 ng/mL in blood, exposure day 8) was 0%, the “Larval Emergence” value [1] was “yes” and the “Pupal Development Control” value [1] was 5.9%. For the same molecule, the “Larval Emergence” value [2] was “yes”, the “Pupal Development Control” value [2] was 2.9% and the “Pupal Development Control” value (eggs of parent fleas fed 0.19 ng/mL in blood, arithmetic mean of exposure days) was 3.1%. For the same molecule, the “Larval Emergence” value [3] was “yes”, the “Pupal Development Control” value [3] was 8.8% and the “Larval Emergence” value [4] was “yes”. The “Pupal Development Control” value [4] was 0.2%, the “Larval Emergence” value [5] was “yes” and the “Pupal Development Control” value [5] was 6.8%. The “Larval Emergence” value [6] was “yes”, the “Pupal Development Control” value [6] was 0% and the “Larval Emergence” value [7] was “yes”. For the same molecule, the “Pupal Development Control” value [7] was 2.7%, the “Larval Emergence” value [8] was “yes” and the “Pupal Development Control” value [8] was 0%. The “Pupal Development Control” value (eggs of parent fleas fed 0.39 ng/mL in blood, arithmetic mean of exposure days) was 3.6%, the “Larval Emergence” value [9] was “yes” and the “Pupal Development Control” value [9] was 9.8%. The “Larval Emergence” value [10] was “yes”, the “Pupal Development Control” value [10] was 0% and the “Larval Emergence” value [11] was “yes”. For the same molecule, the “Pupal Development Control” value [11] was 1.5%, the “Larval Emergence” value [12] was “yes” and the “Pupal Development Control” value [12] was 3.3%. The “Larval Emergence” value [13] was “yes”, the “Pupal Development Control” value [13] was 6.3% and the “Larval Emergence” value [14] was “yes”. For the same molecule, the “Pupal Development Control” value [14] was 0.8%, the “Pupal Development Control” value (eggs of parent fleas fed 0.78 ng/mL in blood, arithmetic mean of exposure days) was 12.1% and the “Larval Emergence” value [15] was “yes”. For the same molecule, the “Pupal Development Control” value [15] was 7.5%, the “Larval Emergence” value [16] was “yes” and the “Pupal Development Control” value [16] was 11.4%. The “Larval Emergence” value [17] was “yes”, the “Pupal Development Control” value [17] was 16.7% and the “Larval Emergence” value [18] was “yes”. For the same molecule, the “Pupal Development Control” value [18] was 10.8%, the “Larval Emergence” value [19] was “yes” and the “Pupal Development Control” value [19] was 11.9%. The “Larval Emergence” value [20] was “yes”, the “Pupal Development Control” value [20] was 14.5% and the “Pupal Development Control” value (eggs of parent fleas fed 1.56 ng/mL in blood, arithmetic mean of exposure days) was 35.1%. The “Larval Emergence” value [21] was “yes”, the “Pupal Development Control” value [21] was 35.3% and the “Larval Emergence” value [22] was “yes”. For the same molecule, the “Pupal Development Control” value [22] was 36.3%, the “Larval Emergence” value [23] was “yes” and the “Pupal Development Control” value [23] was 34.6%. For the same molecule, the “Larval Emergence” value [24] was “yes”, the “Pupal Development Control” value [24] was 35.5% and the “Larval Emergence” value [25] was “yes”. For the same molecule, the “Pupal Development Control” value [25] was 41.6%, the “Larval Emergence” value [26] was “yes” and the “Pupal Development Control” value [26] was 27.2%. For the same molecule, the “Pupal Development Control” value (eggs of parent fleas fed 3.13 ng/mL in blood, arithmetic mean of exposure days) was 64.5%, the “Larval Emergence” value [27] was “yes” and the “Pupal Development Control” value [27] was 66.3%. For the same molecule, the “Larval Emergence” value [28] was “yes”, the “Pupal Development Control” value [28] was 68.9% and the “Larval Emergence” value [29] was “yes”. For the same molecule, the “Pupal Development Control” value [29] was 61.7%, the “Larval Emergence” value [30] was “yes” and the “Pupal Development Control” value [30] was 70.3%. The “Larval Emergence” value [31] was “yes”, the “Pupal Development Control” value [31] was 62.1% and the “Larval Emergence” value [32] was “yes”. The “Pupal Development Control” value [32] was 57.4% and the “Pupal Development Control” value (eggs of parent fleas fed 6.25 ng/mL in blood, arithmetic mean of exposure days) was 88.7%.
